This note sets out measurements from the METLIN SMRT retention time set (Domingo-Almenara et al. 2019).

The nature of this series: gradient 5% acetonitrile 3 min, to 50% in 2 min, to 85% in 15 min, held 3 min, 100 µL/min. To be noted: column: Zorbax Extend-C18 2.1 x 50 mm; eluents: water / acetonitrile, 0.1% formic acid. A digest of the protocol: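 Using water and acetonitrile that each contained 0.1% formic acid, mixtures of ~100 pure standards were separated at 100 μL/min on a Zorbax Extend-C18 column (2.1 × 50 mm, 1.8 μm). The HPLC fed a quadrupole time-of-flight mass spectrometer working in positive and negative ionization mode, with dead and dwell volumes of 40 μL and 900 μL. Data were acquired over 3 months. Retention time was read from computationally picked adduct peaks after manual inspection of each.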
Take `O=C(NCc1cccnc1)C1(CCO)CCN(c2ncccn2)C1` (stereo not given): the RP-LC retention time was determined as 515 s.
Turning to `Nc1cc(C2CCN(C(=O)Nc3ccc(F)cc3F)CC2)no1`, the RP-LC retention time is 666 s.
For `Cn1nccc1-c1cccc(-c2noc(-c3ccccn3)n2)c1`, the RP-LC retention time was found to be 818 s.
Regarding `CCc1ccccc1NS(=O)(=O)c1cc(-c2[nH]ncc2C(=O)N2CCOCC2)oc1C`, the RP-LC retention time worked out at 721 s.
Regarding `CC(C)NCc1ccc(-c2cccc(Cl)c2)o1`, the RP-LC retention time amounted to 691 s.
`COC(=O)C1=CN(c2ccccc2OC)c2cc(F)ccc2S1(=O)=O` yielded an RP-LC retention time of 860 s.
The result for `Cc1ccc(Cl)cc1NC(=O)N1CCC(n2cnnc2C2CC2)C1` (stereo not given) reads 653 s; that for `CCc1ccccc1NC(=O)Cn1cnc2nc(N3CCCC(C(=O)NC(C)C)C3)sc2c1=O` (stereo not given), 759 s.
The compound `Cc1cc(C(=O)N2CC(c3nc(Cc4ccccc4)no3)C2)c(C)o1` gave an RP-LC retention time of 836 s.
Turning to `Cc1cccc(CNC(=O)CCc2nc3c(C)cccc3c(=O)n2C)c1`, the RP-LC retention time was determined as 845 s.
`CCOc1ccc(-c2cc3c(=O)n(Cc4nc(-c5cccc(C(F)(F)F)c5)no4)ncn3n2)cc1` displayed an RP-LC retention time of 1250 s.
As for `CCN1C(=O)COc2ccc(-c3noc(-c4ccccc4)n3)cc21`, the RP-LC retention time was 1140 s.
The figure for `COC(=O)c1ccc(C2NC(=O)c3[nH]nc(-c4ccc(OC)cc4)c32)cc1` (stereo not given) is 702 s; for `Cc1ccc(NC(=O)N2CCCC(C)(C(=O)NCc3ccccc3)C2)cc1Cl` (stereo not given) it is 995 s; for `OC[C@@H]1CN(Cc2cn[nH]c2-c2ccc(F)cc2)C[C@H]1c1ccccn1` it is 586 s.
On to `Cc1cccc(-c2nc(Cn3nnc(-c4nc(-c5ccccc5Br)no4)c3C)c(C)o2)c1`, for which the RP-LC retention time amounted to 1310 s.
`CS(=O)(=O)c1ccccc1-c1nnc(NC(=O)c2cccc(N3C(=O)CCC3=O)c2)o1` had an RP-LC retention time of 609 s.
The result for `Cc1cccc(CNC(=O)C2CCCN(C(=O)C3Sc4ccccc4NC3=O)C2)c1` (stereo not given) reads 762 s.
For `COc1ccc(C(C)NC(=O)C2=C3CCCN3c3ccc(F)cc3S2(=O)=O)cc1` (stereo not given), the RP-LC retention time is 899 s.
On to `Cc1oc(C2CCN(S(=O)(=O)Cc3ccccc3)CC2)nc1C(=O)N1CCCC1`, for which the RP-LC retention time worked out at 861 s.
In turn, `Cc1nc2cccnc2n1CC1CCCN(C(=O)Nc2ccc3c(c2)OCCO3)C1` (stereo not given) came in with an RP-LC retention time of 614 s.
The figure for `CC1(C(=O)N2CC(F)(F)C[C@H]2c2nnc(-c3ccccc3)o2)CC1` is 834 s; for `CCc1cc(C(=O)NCc2ccc(C)o2)nc2cc(-c3ccccn3)nn12` it is 778 s.
The figure for `O=C(Nc1cccc([N+](=O)[O-])c1)N1CCN(c2ccccc2)CC1` is 829 s; for `CCCCNc1nc(-c2ccc(Cl)cc2)nc2ccccc12` it is 873 s.
Compound `COc1ccc(C2(CNC(=O)Cc3cccs3)CCOCC2)cc1` gave an RP-LC retention time of 734 s.
`Cc1cc(C)c(-c2csc(NC(=O)c3ccccc3[N+](=O)[O-])n2)c(C)c1` yielded an RP-LC retention time of 1070 s.
In turn, `Cc1nccn1Cc1nc(-c2cccc(F)c2)no1` came in with an RP-LC retention time of 607 s.
For `CCOC(=O)N1CCC2(CC1)N=C(c1ccc(OCC)cc1)CC(c1ccccc1O)N2` (stereo not given), the RP-LC retention time is 772 s.
Turning to `CN(C)CCn1nnc2cc(-c3noc(-c4ccccc4Br)n3)ccc21`, the RP-LC retention time worked out at 681 s.
`COc1cc(OC)cc(C(=O)N2CCC3(CC2)NC(=O)c2cc(C)ccc2N3C)c1` displayed an RP-LC retention time of 795 s.
Turning to `Cc1cc(C)n(-c2ccnc(N3CCC(C(=O)N4CCC(C)CC4)CC3)n2)n1`, the RP-LC retention time came out at 920 s.
`O=C(Nc1cc(F)c(F)c(F)c1)N1C[C@H]2C[C@H](C1)[C@H]1CCCC(=O)N1C2` gave an RP-LC retention time of 717 s.
In the case of `Cc1ccccc1NC(=O)N1CCC(c2cc(N)on2)CC1`, the RP-LC retention time stood at 644 s.
The compound `CCOC(=O)c1cnc2nc(C)ccc2c1Nc1cccc(F)c1` returned an RP-LC retention time of 689 s.
`CCn1nc(CNC(=O)C2CCC2)c2ccccc21` showed an RP-LC retention time of 748 s.
For the compound `CCc1ccccc1NC(=O)N1CCCC1c1cc(C)on1` (stereo not given), the RP-LC retention time was determined as 774 s.
`Cc1nc(-c2cn(C(C)C)c3ncccc23)sc1C(=O)N1CCN(C)CC1` yielded an RP-LC retention time of 611 s.
The compound `COc1ccc(CCc2nc3nccc(-c4ccccn4)n3n2)cc1` yielded an RP-LC retention time of 837 s.
As to `CCCN1CCN(C(=O)C2CCN(S(=O)(=O)c3ccc4c(c3)sc(=O)n4CCC)CC2)CC1`, the RP-LC retention time was found to be 658 s.
`Cc1ccc(-n2nc(CO)c(C(=O)NC3CCCC3)n2)cc1C` had an RP-LC retention time of 1090 s.
In turn, `O=C(Oc1cccc([N+](=O)[O-])c1)N1CCCCC1` yielded an RP-LC retention time of 896 s.
The result for `CCCOCCOC(=O)C1=C(C)NC2=C(C(=O)C(C(=O)OC)C(C)C2)C1c1ccccc1F` (stereo not given) reads 946 s.
The compound `CCCn1c(=O)sc2cc(S(=O)(=O)N3CCC(C(=O)Nc4cccc(C)c4)CC3)ccc21` returned an RP-LC retention time of 1010 s.
The result for `O=C(Nc1c(F)cccc1F)N1CCc2nc(-c3ccc(Cl)cc3)ncc2C1` reads 954 s; that for `CCc1c(C(=O)O)nnn1-c1ccccc1F`, 690 s.
On to `COc1ccc(Cl)cc1NC(=O)N1CCCC1c1nc(-c2ccc(F)cc2F)no1` (stereo not given), for which the RP-LC retention time stood at 1120 s.
`O=C(c1ccco1)N1CCc2c([nH]c3ccccc23)C1c1ccc(Cl)cc1` (stereo not given) registered an RP-LC retention time of 1170 s.
Consider `Cc1ccc(-c2ccnc3c(C(=O)NCCc4c[nH]c5ccccc45)cnn23)cc1C`, for which the RP-LC retention time was determined as 1070 s.
`Cc1nn(-c2ccc(-c3noc(C4CC4)n3)cc2)cc1C(=O)Nc1ccc(F)cc1F`: the RP-LC retention time amounted to 773 s.
The result for `CC(C)(C)c1ccc(-c2nc(N3CCOCC3)c3ccccc3n2)cc1` reads 821 s.
In turn, `O=C(c1cccs1)N1CCCC1c1nc(-c2ccccc2)no1` (stereo not given) had an RP-LC retention time of 946 s.
`Cc1nc(-c2ccc3c(c2)CCN3C(=O)Cc2cccc(F)c2)no1` returned an RP-LC retention time of 923 s.
The compound `CNC(=O)C1CCN(Cc2cc3ccccc3n2Cc2cccc(Cl)c2)CC1` returned an RP-LC retention time of 683 s.
On to `O=C(Cc1cccn1-c1cccc(Cl)c1)NCc1ccc(N2CCOCC2)cc1`, for which the RP-LC retention time was determined as 890 s.
Take `CNC(=O)c1cccc(Nc2c(-c3ccc(N(C)C)cc3)nc3cnccn23)c1`: the RP-LC retention time was found to be 610 s.
`COc1ccc(C(=O)NCCC(O)C(C)(C)C)cc1` (stereo not given) showed an RP-LC retention time of 688 s.
The compound `COc1ccc(OC)c2sc(NC(=O)c3cc(Cl)sc3Cl)nc12` had an RP-LC retention time of 1010 s.
With `O=C(CCCN1C(=O)c2cccc3cccc(c23)C1=O)N1CCN(c2ncccn2)CC1`, the RP-LC retention time stood at 723 s.
Regarding `CN(C)C(=O)Oc1cc(OC(=O)N(C)C)cc(C(O)CNC(C)(C)C)c1` (stereo not given), the RP-LC retention time turned out to be 688 s.
The compound `O=C(c1ccc(-n2cnnn2)cc1)N1CCN(c2ccccn2)CC1` displayed an RP-LC retention time of 567 s.
In turn, `CCc1ccc(Oc2cc(N3CCC(C(=O)NCCc4cccs4)CC3)ncn2)cc1` had an RP-LC retention time of 851 s.
Turning to `O=C1C(N2CCN(S(=O)(=O)c3ccccc3)CC2)CCN1CCc1ccccc1` (stereo not given), the RP-LC retention time was determined as 642 s.
The result for `O=C(c1csc(-c2ccnc(N3CCOCC3)c2)n1)N1CCCCCC1` reads 689 s; that for `Cc1cccc(OCc2nc(-c3cccc(-c4csc(C5CC5)n4)c3)no2)c1`, 1430 s; that for `CC(NC(=O)Cc1nnc2cc(-c3nc(C4CC4)no3)ccn12)c1ccc(F)cc1` (stereo not given), 780 s.
In turn, `CCn1c(C)c(CN2CCC(C(=O)NCc3cccc(Cl)c3)CC2)c2ccccc21` had an RP-LC retention time of 772 s.
On to `CC1=C(c2ccc(Cl)cc2)S(=O)(=O)N=C1N1CCCN(C(=O)CC(C)(C)C)CC1`, for which the RP-LC retention time came out at 944 s.
The result for `Cc1cc(C(=O)Nc2nnc(-c3ccn(C(C)C)n3)o2)no1` reads 620 s; that for `O=C(Nc1ccc2c(c1)CN(S(=O)(=O)Cc1ccccc1)CCO2)C1CC1`, 844 s.
The result for `CCOc1ccc(-c2nc(CNC(=O)Nc3ccccc3OCC)c(C)o2)cc1` reads 1080 s; that for `COc1ccc2nc3oc(C(=O)NCCc4ccsc4)cc3cc2c1`, 901 s; that for `Cc1cc2c(c(=O)n(-c3ccccc3)c(=O)n2CC(=O)Nc2ccc(Cl)cc2)n1C`, 885 s.
The figure for `CCCN1C(=O)COc2ccc(-c3noc(-c4ccc(Cl)cc4OC)n3)cc21` is 1260 s; for `Cc1cccc(-c2nc(N3CCOCC3)ncc2C(=O)O)c1` it is 787 s.
Compound `Cc1nc2c(nc1C)C(=O)c1ccccc1C2=O` showed an RP-LC retention time of 655 s.
In the case of `Cc1ccc(NC(=O)C2CC(=O)N(c3n[nH]c4cccc(F)c34)C2)cc1` (stereo not given), the RP-LC retention time worked out at 708 s.
The compound `O=C(CNC(=O)c1ccc(C(F)(F)F)cc1)Nc1nc2ccccc2[nH]1` registered an RP-LC retention time of 688 s.
Turning to `O=C(c1nnc(-c2ccc(S(=O)(=O)N3CCCCC3)cc2)o1)N1CCN(c2ccccc2F)CC1`, the RP-LC retention time was determined as 1130 s.
Compound `CC(C)c1ccc(-c2ccc(=O)n(CCc3nc(-c4ccc5c(c4)OCO5)no3)n2)cc1` yielded an RP-LC retention time of 1140 s.
